# Experimental data as given in patent US7045320B2, “Methods for producing L-amino acids” (priority 2001, dated 2006).
# Tests used:
# Format in all cases: biochemical
# [1] = biological target: T1, TrpE5 mutant anthranilate synthase (Escherichia coli, UniProt P00895, P21S); assay: Ki value of anthranilate synthase (AS) to L-tryptophan, TrpE5
# T1 construct: endogenous in cells; host or cells: 5-methyltryptophan-resistant mutant of E. coli K12 YMC9 (gene later cloned as pE5)
# Protocol: (§1) Following the culture for 24–48 hours at 37° C., 5-methyltryptophan resistant clones were seeded on the aforementioned agar medium. In order to examine properties of the obtained mutant strain, Ki value of AS to L-tryptophan was measured (Bauerle R. et al., Methods in Enzymology, 142, pp.366–386, 1987). As a result, the mutant strains could be classified into two classes. The class 1 mutant strains had feedback resistant anthranilate synthase. […] The AS genes of these mutant strains were cloned and their nucleotide sequences were determined. Chromosomal DNA of each mutant strain was isolated and digested with restriction enzymes NheI and ClaI to isolate a fragment of about 5 kb, and this fragment was ligated with the NheI/ClaI fragment (4158 bp) of pBR322.
# (§2) E. coli KB 862 (trpE) (DSM7196) was transformed with the ligation reaction product. A clone that could grow on a minimal medium not containing L-tryptophan was selected. All the plasmids complementing the trpE mutation contained the NheI/ClaI fragment of 5 kb. Further, this 5 kb NheI/ClaI fragment contained trpE, trpD, a sequence about 0.8 kb upstream from trpE, and a sequence about 1 kb downstream from trpD. Differences in amino acid sequences of mutant AS encoded by plasmids (pE0, pE5, pE6, pE8) contained in the mutant strains and their Ki values are shown in Table 1.
# [2] = biological target: T2, TrpE0 mutant anthranilate synthase (Escherichia coli, UniProt P00895, K50E); assay: Ki value of anthranilate synthase (AS) to L-tryptophan, TrpE0
# T2 construct: endogenous in cells; host or cells: 5-methyltryptophan-resistant mutant of E. coli K12 YMC9 (gene later cloned as pE0)
# T2 sequence (P00904 2-531): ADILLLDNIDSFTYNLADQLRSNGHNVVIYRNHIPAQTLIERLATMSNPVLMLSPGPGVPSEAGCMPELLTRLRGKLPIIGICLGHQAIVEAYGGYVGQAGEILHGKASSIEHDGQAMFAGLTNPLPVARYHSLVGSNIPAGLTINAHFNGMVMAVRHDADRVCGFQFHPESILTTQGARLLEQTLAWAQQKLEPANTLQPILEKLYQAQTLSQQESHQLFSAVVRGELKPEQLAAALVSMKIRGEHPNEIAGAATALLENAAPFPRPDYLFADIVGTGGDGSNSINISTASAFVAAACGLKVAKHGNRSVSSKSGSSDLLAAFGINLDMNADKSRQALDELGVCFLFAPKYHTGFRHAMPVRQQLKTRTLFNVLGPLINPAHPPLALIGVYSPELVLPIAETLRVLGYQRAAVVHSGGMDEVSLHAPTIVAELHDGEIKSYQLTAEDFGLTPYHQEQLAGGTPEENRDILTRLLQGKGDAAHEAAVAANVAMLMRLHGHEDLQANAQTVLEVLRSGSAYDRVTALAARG
# T2 sequence (P00895 whole entry K50E): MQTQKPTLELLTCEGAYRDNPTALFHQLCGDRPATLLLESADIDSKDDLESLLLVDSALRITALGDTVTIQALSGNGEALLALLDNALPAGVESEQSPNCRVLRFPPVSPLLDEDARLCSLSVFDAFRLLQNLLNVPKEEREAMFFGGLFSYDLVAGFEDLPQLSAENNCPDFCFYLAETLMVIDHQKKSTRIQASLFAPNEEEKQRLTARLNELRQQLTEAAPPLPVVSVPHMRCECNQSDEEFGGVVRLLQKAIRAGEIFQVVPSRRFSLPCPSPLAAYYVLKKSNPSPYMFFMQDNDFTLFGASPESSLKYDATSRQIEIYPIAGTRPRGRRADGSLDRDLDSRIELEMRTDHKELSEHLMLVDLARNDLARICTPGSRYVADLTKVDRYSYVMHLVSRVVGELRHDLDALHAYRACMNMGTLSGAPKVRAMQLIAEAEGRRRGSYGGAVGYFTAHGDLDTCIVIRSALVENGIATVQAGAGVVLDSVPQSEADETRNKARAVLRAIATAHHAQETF
# Protocol: as §1, §2
# [3] = biological target: T3, Wild type trpE anthranilate synthase (Escherichia coli, UniProt P00895); assay: Ki value of anthranilate synthase (AS) to L-tryptophan, wild type
# T3 construct: endogenous in cells
# T3 sequence (P00904 2-531): as the sequence (P00904 2-531) above
# T3 sequence (P00895 whole entry): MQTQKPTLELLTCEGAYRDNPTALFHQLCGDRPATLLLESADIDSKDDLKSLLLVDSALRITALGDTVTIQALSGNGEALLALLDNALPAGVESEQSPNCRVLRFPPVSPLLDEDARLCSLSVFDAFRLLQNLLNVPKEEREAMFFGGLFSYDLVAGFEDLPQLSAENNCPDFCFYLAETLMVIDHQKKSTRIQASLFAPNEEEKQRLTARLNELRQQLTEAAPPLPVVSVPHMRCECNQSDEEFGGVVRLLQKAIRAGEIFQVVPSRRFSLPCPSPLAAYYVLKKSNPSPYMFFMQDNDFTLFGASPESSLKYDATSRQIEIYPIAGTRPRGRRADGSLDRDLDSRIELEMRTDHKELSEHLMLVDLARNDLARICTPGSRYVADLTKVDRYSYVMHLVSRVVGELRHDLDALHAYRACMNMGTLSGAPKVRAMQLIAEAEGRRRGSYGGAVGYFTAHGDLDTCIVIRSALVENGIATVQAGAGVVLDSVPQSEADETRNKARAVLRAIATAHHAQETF
# Protocol: as §1, §2
# [4] = biological target: T4, TrpE6 mutant anthranilate synthase (Escherichia coli, UniProt P00895, K50E/S40F); assay: Ki value of anthranilate synthase (AS) to L-tryptophan, TrpE6
# T4 construct: endogenous in cells; host or cells: 5-methyltryptophan-resistant mutant of E. coli K12 YMC9 (gene later cloned as pE6)
# T4 sequence (P00895 whole entry S40F/K50E): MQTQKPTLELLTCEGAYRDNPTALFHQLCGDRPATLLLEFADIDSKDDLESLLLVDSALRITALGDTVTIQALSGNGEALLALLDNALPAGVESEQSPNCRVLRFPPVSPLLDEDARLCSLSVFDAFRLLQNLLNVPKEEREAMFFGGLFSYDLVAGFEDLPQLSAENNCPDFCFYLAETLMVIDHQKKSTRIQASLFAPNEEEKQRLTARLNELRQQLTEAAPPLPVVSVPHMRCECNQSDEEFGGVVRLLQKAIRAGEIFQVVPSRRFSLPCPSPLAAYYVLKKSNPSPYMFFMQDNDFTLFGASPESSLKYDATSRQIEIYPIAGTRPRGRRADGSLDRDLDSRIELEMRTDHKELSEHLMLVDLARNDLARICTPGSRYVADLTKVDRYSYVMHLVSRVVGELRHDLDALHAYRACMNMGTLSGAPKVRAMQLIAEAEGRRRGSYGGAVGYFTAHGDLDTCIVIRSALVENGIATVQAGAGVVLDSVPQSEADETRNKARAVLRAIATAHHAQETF
# T4 sequence (P00904 2-531, further chain): as the sequence (P00904 2-531) above
# Protocol: as §1, §2
# T1 sequence (P00904 2-531): as above
# T1 sequence (P00895 whole entry P21S): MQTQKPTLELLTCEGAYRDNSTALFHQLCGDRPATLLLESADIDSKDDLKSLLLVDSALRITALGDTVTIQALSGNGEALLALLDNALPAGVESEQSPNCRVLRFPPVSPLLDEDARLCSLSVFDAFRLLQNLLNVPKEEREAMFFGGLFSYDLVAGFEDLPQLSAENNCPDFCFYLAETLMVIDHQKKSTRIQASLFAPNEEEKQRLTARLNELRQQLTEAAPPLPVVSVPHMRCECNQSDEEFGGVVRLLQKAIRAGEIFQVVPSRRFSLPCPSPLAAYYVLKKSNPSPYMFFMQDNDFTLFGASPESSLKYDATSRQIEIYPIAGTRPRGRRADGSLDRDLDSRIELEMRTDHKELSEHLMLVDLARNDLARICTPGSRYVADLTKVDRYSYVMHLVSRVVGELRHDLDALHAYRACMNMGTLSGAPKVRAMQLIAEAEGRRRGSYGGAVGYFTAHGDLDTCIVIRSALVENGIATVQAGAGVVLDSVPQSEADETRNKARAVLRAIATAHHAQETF
smiles,measurement,setting,value
N[C@@H](Cc1c[nH]c2ccccc12)C(=O)O [L-tryptophan],Ki,[1],3000 µM
same,Ki,[2],100 µM
same,Ki,[3],10 µM
same,Ki,[4],> 15000 µM
